Assay results: US6034056A, “Fibronectin adhesion inhibitors” (Zeneca Limited, priority 1994, dated 2000)
pIC50: −log10 of the molar value. Where a SMILES comes first, the peptide text is derived from it. [ ]: non-standard residue; d: D form. βAla = NCCC(=O)O

What was measured:
leukocyte cell = settings: cited from earlier work
[1] = test system: 120 kDa chymotryptic fragment of fibronectin; settings: cited from earlier work
Jurkat cell = settings: read-out: IC50, blocking Jurkat cell adhesion to CS-1 coated plates; cited from earlier work
[2] = biological tests (not specified); settings: at 200 μM
αvβ3 = αvβ3 (Homo sapiens, UniProt P05106+P06756); settings: cited from earlier work
αIIbβIIIa = αIIbβIIIa (Homo sapiens, UniProt P05106+P08514); settings: cited from earlier work
Jurkat cells = settings: cited from earlier work

Chain of αIIbβIIIa (P08514 32-887 limits assumed): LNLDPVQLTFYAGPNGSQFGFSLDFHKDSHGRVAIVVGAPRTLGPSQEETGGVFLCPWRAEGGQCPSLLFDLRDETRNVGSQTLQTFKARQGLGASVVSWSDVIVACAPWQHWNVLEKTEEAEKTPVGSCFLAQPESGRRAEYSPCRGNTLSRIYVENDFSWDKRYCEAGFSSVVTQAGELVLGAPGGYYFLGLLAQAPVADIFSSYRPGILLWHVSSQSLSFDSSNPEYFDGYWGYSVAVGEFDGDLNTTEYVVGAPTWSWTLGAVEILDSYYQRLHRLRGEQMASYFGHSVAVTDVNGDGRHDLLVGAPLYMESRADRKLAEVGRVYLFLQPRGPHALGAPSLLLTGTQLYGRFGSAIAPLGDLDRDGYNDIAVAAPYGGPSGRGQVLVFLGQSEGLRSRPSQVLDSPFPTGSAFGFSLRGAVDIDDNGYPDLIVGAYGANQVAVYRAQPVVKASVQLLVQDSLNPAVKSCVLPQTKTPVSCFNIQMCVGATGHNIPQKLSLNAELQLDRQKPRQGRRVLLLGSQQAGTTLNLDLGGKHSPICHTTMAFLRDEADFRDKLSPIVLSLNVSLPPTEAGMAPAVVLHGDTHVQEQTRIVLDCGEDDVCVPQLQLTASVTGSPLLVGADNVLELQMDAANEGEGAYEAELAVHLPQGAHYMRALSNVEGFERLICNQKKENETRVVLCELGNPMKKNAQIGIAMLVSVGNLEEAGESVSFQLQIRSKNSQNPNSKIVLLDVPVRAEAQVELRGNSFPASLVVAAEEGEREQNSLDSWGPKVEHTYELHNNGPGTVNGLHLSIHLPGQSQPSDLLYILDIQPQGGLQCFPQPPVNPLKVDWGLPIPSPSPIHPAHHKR
Chain of αIIbβIIIa (P08514 891-1039 partner limits assumed): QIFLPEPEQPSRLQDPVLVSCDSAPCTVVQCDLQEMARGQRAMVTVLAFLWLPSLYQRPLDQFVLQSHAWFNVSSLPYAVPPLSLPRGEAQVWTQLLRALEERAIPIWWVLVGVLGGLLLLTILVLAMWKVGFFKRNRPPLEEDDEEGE
Chain of αIIbβIIIa (P05106 27-788): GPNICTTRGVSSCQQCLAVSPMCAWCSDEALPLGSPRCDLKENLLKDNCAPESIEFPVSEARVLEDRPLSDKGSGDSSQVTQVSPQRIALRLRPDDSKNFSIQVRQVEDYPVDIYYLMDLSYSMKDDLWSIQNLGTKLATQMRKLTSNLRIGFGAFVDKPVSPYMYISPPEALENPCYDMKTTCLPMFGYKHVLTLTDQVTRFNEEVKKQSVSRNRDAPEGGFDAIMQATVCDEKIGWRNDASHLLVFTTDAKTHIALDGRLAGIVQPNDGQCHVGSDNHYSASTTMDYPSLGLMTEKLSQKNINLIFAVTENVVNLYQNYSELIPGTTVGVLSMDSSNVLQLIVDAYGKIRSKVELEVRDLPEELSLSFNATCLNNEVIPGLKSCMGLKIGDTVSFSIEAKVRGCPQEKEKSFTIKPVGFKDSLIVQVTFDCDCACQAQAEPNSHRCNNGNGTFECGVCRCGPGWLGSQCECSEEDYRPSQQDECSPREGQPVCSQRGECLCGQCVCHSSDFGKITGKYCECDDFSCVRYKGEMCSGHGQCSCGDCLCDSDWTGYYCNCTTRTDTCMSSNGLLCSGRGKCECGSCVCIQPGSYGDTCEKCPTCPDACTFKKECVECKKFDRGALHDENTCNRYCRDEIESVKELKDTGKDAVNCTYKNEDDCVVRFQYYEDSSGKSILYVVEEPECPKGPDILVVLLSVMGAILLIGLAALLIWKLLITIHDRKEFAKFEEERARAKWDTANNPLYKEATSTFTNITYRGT
Chain of αvβ3 (P06756 31-889 limits assumed): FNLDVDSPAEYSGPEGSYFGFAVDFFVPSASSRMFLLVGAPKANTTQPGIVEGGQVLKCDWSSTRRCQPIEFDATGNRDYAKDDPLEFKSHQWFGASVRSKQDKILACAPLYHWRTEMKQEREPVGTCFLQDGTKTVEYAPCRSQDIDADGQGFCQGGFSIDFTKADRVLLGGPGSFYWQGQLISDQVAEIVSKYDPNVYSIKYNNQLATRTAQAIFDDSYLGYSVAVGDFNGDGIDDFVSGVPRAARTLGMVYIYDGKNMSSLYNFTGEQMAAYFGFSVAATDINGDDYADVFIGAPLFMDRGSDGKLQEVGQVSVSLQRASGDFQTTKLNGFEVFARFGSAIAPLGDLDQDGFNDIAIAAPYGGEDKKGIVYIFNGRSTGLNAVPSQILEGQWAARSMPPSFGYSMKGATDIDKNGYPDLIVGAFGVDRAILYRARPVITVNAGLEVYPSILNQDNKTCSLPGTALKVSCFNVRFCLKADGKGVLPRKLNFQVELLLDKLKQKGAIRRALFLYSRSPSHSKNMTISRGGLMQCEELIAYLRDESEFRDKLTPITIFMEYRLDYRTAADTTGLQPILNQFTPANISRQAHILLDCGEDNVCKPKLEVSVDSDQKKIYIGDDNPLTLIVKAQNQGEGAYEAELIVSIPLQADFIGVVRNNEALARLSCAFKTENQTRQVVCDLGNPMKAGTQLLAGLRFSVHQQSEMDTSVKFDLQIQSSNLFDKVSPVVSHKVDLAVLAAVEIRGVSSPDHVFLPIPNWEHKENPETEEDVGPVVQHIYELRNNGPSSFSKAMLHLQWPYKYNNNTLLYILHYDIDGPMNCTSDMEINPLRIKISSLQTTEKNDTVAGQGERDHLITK
Chain of αvβ3 (P06756 891-1048 partner limits assumed): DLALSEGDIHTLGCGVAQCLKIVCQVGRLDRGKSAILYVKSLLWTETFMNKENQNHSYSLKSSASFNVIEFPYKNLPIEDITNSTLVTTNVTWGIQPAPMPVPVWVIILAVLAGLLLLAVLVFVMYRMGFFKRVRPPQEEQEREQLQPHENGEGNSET
Chain of αvβ3 (P05106 27-788): as the sequence (P05106 27-788) above

For Arg-Cys-Asp-thioproline-Cys, the “inhibition of leukocyte cell adhesion to fibronectin” value (leukocyte cell) is listed as “inhibitor of leukocyte cell adhesion to fibronectin” and the “inhibition of binding to 120 kDa fibronectin fragment” value [1] is listed as “inhibited the binding”.
In the case of “Cys-Leu-His-Gly-Pro-Glu-Ile-Ieu-Asp-Val-Pro-Ser-Thr”, the pIC50 (Jurkat cell) is given as 4.52.
With `CC[C@H](C)[C@@H]1NC(=O)CCNC(=O)[C@H](C(C)C)NC(=O)[C@H](CC(=O)O)NC(=O)[C@H](CC(C)C)NC1=O` (cyclo(DV[βAla]IL)) the “activity in biological tests” value [2] was “inactive”.
In the case of “1-adamantaneacetyl-Cys-Gly-Arg-Gly-Asp-Ser-Pro-Cys”, the “inhibition of function in αvβ3-dependent assay” value (αvβ3) is given as “inhibited function”, the “inhibition of function in αIIbβIIIa-dependent assay” value (αIIbβIIIa) is given as “inhibited function” and the pIC50 (Jurkat cell) is given as 4.52. For the same compound, the “inhibition of Jurkat cell binding to fibronectin coated plates” value (Jurkat cells) was “inhibited the binding”.
